Results as given in PubChem BioAssay AID292 (DTP/NCI, 2004).
“And” between values parts separate entries of the source, which are not always exact repeats. Equal values may be shown once. Toxic doses and inconclusive results are not listed.

Test system: B6C3F1 mice, ip Sarcoma M5076, median survival T/C
Experiment: NCI In Vivo Anticancer Drug Screen. Data for tumor model Sarcoma M5076 (intraperitoneal) in B6C3F1 mice
Details: endpoint: median survival time, higher = longer survival
Procedure, shortened: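 Antitumour effect is judged in tumour-bearing mice by comparing survival after compound dosing against vehicle-only animals, reported as T/C.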

## Cc1ccoc1
dose: 16.8 mg/kg/injection, schedule: Q03HX012 (ip), vehicle: saline with Tween-80
  T/C: 101 % of control
dose: 33.3 mg/kg/injection, schedule: Q03HX012 (ip), vehicle: saline with Tween-80
  T/C: 93 % of control
dose: 66.6 mg/kg/injection, schedule: Q03HX012 (ip), vehicle: saline with Tween-80
  T/C: 96 % of control
dose: 133.3 mg/kg/injection, schedule: Q03HX012 (ip), vehicle: saline with Tween-80
  T/C: 100 % of control

## NCCCN=c1ccc2c3c1c(O)c1c(O)ccc(=O)c1c3[nH]n2CCNCCO
dose: 8.0 mg/kg/injection, schedule: Q04DX004 (ip), vehicle: water
  T/C: 171 % of control
dose: 16.0 mg/kg/injection, schedule: Q04DX004 (ip), vehicle: water
  T/C: 186 % of control

## O=S1(=O)C(c2cccc(F)c2)=C(O)c2cc3ccccc3nc21
dose: 26.57 mg/kg/injection, schedule: Q04DX004 (ip), vehicle: saline with Tween-80
  T/C: 100 % of control
dose: 53.13 mg/kg/injection, schedule: Q04DX004 (ip), vehicle: saline with Tween-80
  T/C: 92 % of control
dose: 106.25 mg/kg/injection, schedule: Q04DX004 (ip), vehicle: saline with Tween-80
  T/C: 96 % of control
dose: 212.5 mg/kg/injection, schedule: Q04DX004 (ip), vehicle: saline with Tween-80
  T/C: 92 % of control

## COC1C(CO)OC(n2c3c(Cl)cccc3c3c4c(c5c6cccc(Cl)c6[nH]c5c32)C(=O)NC4=O)C(O)C1O (stereo not given)
dose: 46.75 mg/kg/injection, schedule: Q04DX004 (ip), vehicle: distilled water + Tween-80
  T/C: 113 % of control
dose: 50.0 mg/kg/injection, schedule: Q04DX004 (ip), vehicle: distilled water + Tween-80
  T/C: 116 % of control
dose: 93.5 mg/kg/injection, schedule: Q04DX004 (ip), vehicle: distilled water + Tween-80
  T/C: 118 % of control
dose: 100.0 mg/kg/injection, schedule: Q04DX004 (ip), vehicle: distilled water + Tween-80
  T/C: 117 % of control and 118 % of control
dose: 200.0 mg/kg/injection, schedule: Q04DX004 (ip), vehicle: distilled water + Tween-80
  T/C: 118 % of control
dose: 374.0 mg/kg/injection, schedule: Q04DX004 (ip), vehicle: distilled water + Tween-80
  T/C: 108 % of control
dose: 748.0 mg/kg/injection, schedule: Q04DX004 (ip), vehicle: distilled water + Tween-80
  T/C: 115 % of control
dose: 800.0 mg/kg/injection, schedule: Q04DX004 (ip), vehicle: distilled water + Tween-80
  T/C: 117 % of control

## CC(C)NC(=O)OCc1c(COC(=O)NC(C)C)c(-c2ccc(Cl)c(Cl)c2)n2c1CCC2
dose: 75.0 mg/kg/injection, schedule: Q04DX004 (ip), vehicle: saline with Tween-80
  T/C: 161 % of control
dose: 108.0 mg/kg/injection, schedule: Q04DX004 (ip), vehicle: saline with Tween-80
  T/C: 188 % of control
dose: 150.0 mg/kg/injection, schedule: Q04DX004 (ip), vehicle: saline with Tween-80
  T/C: 186 % of control
dose: 180.0 mg/kg/injection, schedule: Q04DX004 (ip), vehicle: saline with Tween-80
  T/C: 114 % of control
dose: 600.0 mg/kg/injection, schedule: Q04DX004 (ip), vehicle: saline with Tween-80
  T/C: 152 % of control

## CN=C(NC)c1ccc(NC(=O)/C=C\c2ccc(/C=C/C(=O)Nc3ccc(C(=NC)NC)cc3)cc2)cc1
dose: 3.12 mg/kg/injection, schedule: Q04DX004 (ip), vehicle: Klucel (hydroxypropylcellulose) (HPC)
  T/C: 124 % of control
dose: 3.75 mg/kg/injection, schedule: Q04DX004 (ip), vehicle: Klucel (hydroxypropylcellulose) (HPC)
  T/C: 116 % of control
dose: 6.25 mg/kg/injection, schedule: Q04DX004 (ip), vehicle: Klucel (hydroxypropylcellulose) (HPC)
  T/C: 115 % of control
dose: 10.42 mg/kg/injection, schedule: Q04DX004 (ip), vehicle: Klucel (hydroxypropylcellulose) (HPC)
  T/C: 164 % of control
dose: 17.37 mg/kg/injection, schedule: Q04DX004 (ip), vehicle: Klucel (hydroxypropylcellulose) (HPC)
  T/C: 105 % of control

## N[C@@H](Cc1c[nH]c2ccccc12)C(=O)Nc1nncs1
dose: 16.67 mg/kg/injection, schedule: Q03HX012 (ip), vehicle: saline
  T/C: 102 % of control
dose: 33.34 mg/kg/injection, schedule: Q03HX012 (ip), vehicle: saline
  T/C: 101 % of control
dose: 66.67 mg/kg/injection, schedule: Q03HX012 (ip), vehicle: saline
  T/C: 109 % of control
dose: 100.0 mg/kg/injection, schedule: Q04DX004 (ip), vehicle: suspension in saline
  T/C: 95 % of control
dose: 133.34 mg/kg/injection, schedule: Q03HX012 (ip), vehicle: saline
  T/C: 120 % of control
dose: 200.0 mg/kg/injection, schedule: Q04DX004 (ip), vehicle: suspension in saline
  T/C: 111 % of control
dose: 266.67 mg/kg/injection, schedule: Q03HX012 (ip), vehicle: saline
  T/C: 120 % of control
dose: 400.0 mg/kg/injection, schedule: Q04DX004 (ip), vehicle: suspension in saline
  T/C: 101 % of control
dose: 800.0 mg/kg/injection, schedule: Q04DX004 (ip), vehicle: suspension in saline
  T/C: 118 % of control

## C=Cc1cc(OC)c2c(c1)c(=O)oc1c2cc(OC)c2c(O)ccc(C3OC(C)C(O)C(C)(O)C3O)c21 (stereo not given)
dose: 10.0 mg/kg/injection, schedule: Q04DX004 (ip), vehicle: DMSO
  T/C: 114 % of control
dose: 20.0 mg/kg/injection, schedule: Q04DX004 (ip), vehicle: DMSO
  T/C: 110 % of control
dose: 40.0 mg/kg/injection, schedule: Q04DX004 (ip), vehicle: DMSO
  T/C: 88 % of control
dose: 80.0 mg/kg/injection, schedule: Q04DX004 (ip), vehicle: DMSO
  T/C: 118 % of control
dose: 160.0 mg/kg/injection, schedule: Q04DX004 (ip), vehicle: DMSO
  T/C: 100 % of control

## CC[C@](C)(O)C(=O)O[C@H]1C(=O)O[C@@H]2C[C@H]3C(C)=CC(=O)[C@@H](O)[C@]3(C)[C@H]3[C@@]4(O)OC[C@]32[C@@H]1[C@@H](C)[C@H]4O
dose: 0.03 mg/kg/injection, schedule: Q04DX004 (ip), vehicle: saline
  T/C: 102 % of control
dose: 0.06 mg/kg/injection, schedule: Q04DX004 (ip), vehicle: saline
  T/C: 117 % of control
dose: 0.25 mg/kg/injection, schedule: Q04DX004 (ip), vehicle: saline
  T/C: 100 % of control

## COc1cccc2c1C(=O)C1=C(C2=O)c2c(O)cc(CO)cc2C(O)C1O (stereo not given)
dose: 6.25 mg/kg/injection, schedule: Q04DX004 (ip), vehicle: saline with Tween-80
  T/C: 100 % of control
dose: 12.5 mg/kg/injection, schedule: Q04DX004 (ip), vehicle: saline with Tween-80
  T/C: 106 % of control
dose: 25.0 mg/kg/injection, schedule: Q04DX004 (ip), vehicle: saline with Tween-80
  T/C: 92 % of control
dose: 50.0 mg/kg/injection, schedule: Q04DX004 (ip), vehicle: saline with Tween-80
  T/C: 101 % of control

## O=C1C=CC(O)N1 (stereo not given)
dose: 10.0 mg/kg/injection, schedule: Q01DX009 (ip), vehicle: water
  T/C: 95 % of control
dose: 20.0 mg/kg/injection, schedule: Q01DX009 (ip), vehicle: water
  T/C: 101 % of control
dose: 40.0 mg/kg/injection, schedule: Q01DX009 (ip), vehicle: water
  T/C: 101 % of control
dose: 80.0 mg/kg/injection, schedule: Q01DX009 (ip), vehicle: water
  T/C: 101 % of control
dose: 160.0 mg/kg/injection, schedule: Q01DX009 (ip), vehicle: water
  T/C: 94 % of control

## CC1[C@@H]2CC=C3[C@H]4CCC5Cc6nc7c(nc6C[C@@]5(C)C4CC(=O)[C@]32CO[C@]12OC(C)(C)CC2O)CC1CC[C@@H]2C3=C[C@H]4O[C@@]5(O[C@@](C)(CO)C[C@@H]5O)C(C)[C@@]4(O)[C@]3(C)[C@@H](O)CC2[C@]1(C)C7 (stereo not given in full)
dose: 12.5 micrograms/kg/injection, schedule: Q04DX004 (ip), vehicle: saline + alcohol
  T/C: 98 % of control
dose: 25.0 micrograms/kg/injection, schedule: Q04DX004 (ip), vehicle: saline + alcohol
  T/C: 94 % of control
dose: 50.0 micrograms/kg/injection, schedule: Q04DX004 (ip), vehicle: saline + alcohol
  T/C: 102 % of control
dose: 100.0 micrograms/kg/injection, schedule: Q04DX004 (ip), vehicle: saline + alcohol
  T/C: 103 % of control and 107 % of control
dose: 200.0 micrograms/kg/injection, schedule: Q04DX004 (ip), vehicle: saline + alcohol
  T/C: 114 % of control

## N=C(N)c1ccc(N=Nc2c(O)ccc3cc(O)ccc23)cc1
dose: 12.5 mg/kg/injection, schedule: Q04DX004 (ip), vehicle: Klucel (hydroxypropylcellulose) (HPC)
  T/C: 98 % of control and 103 % of control
dose: 25.0 mg/kg/injection, schedule: Q04DX004 (ip), vehicle: Klucel (hydroxypropylcellulose) (HPC)
  T/C: 95 % of control and 99 % of control
dose: 50.0 mg/kg/injection, schedule: Q04DX004 (ip), vehicle: Klucel (hydroxypropylcellulose) (HPC)
  T/C: 96 % of control and 103 % of control
dose: 100.0 mg/kg/injection, schedule: Q04DX004 (ip), vehicle: Klucel (hydroxypropylcellulose) (HPC)
  T/C: 100 % of control and 103 % of control
dose: 200.0 mg/kg/injection, schedule: Q04DX004 (ip), vehicle: Klucel (hydroxypropylcellulose) (HPC)
  T/C: 97 % of control and 98 % of control

## COC(COC(=O)N1CCN(C=O)CC1)C1=C(N2CC2)C(=O)C(C)=C(N2CC2)C1=O (stereo not given)
dose: 1.5 mg/kg/injection, schedule: Q04DX004 (ip), vehicle: saline
  T/C: 124 % of control
dose: 3.0 mg/kg/injection, schedule: Q04DX004 (ip), vehicle: saline
  T/C: 152 % of control
dose: 3.6 mg/kg/injection, schedule: Q04DX004 (ip), vehicle: saline
  T/C: 150 % of control
dose: 6.0 mg/kg/injection, schedule: Q04DX004 (ip), vehicle: saline
  T/C: 176 % of control and 190 % of control
dose: 10.0 mg/kg/injection, schedule: Q04DX004 (ip), vehicle: saline
  T/C: 245 % of control
dose: 12.0 mg/kg/injection, schedule: Q04DX004 (ip), vehicle: saline
  T/C: 151 % of control
